Molecules are shown by their SMILES.

Data set [1] relates to Phaeosphaeria nodorum (Septoria nodorum). In words: Phaeosphaeria nodorum (Septoria nodorum)/Wheat/Leaf Disc Preventative (Glume Blotch). The note with it: Parastagonospora nodorum, foliar, wheat leaf disc preventative, compared to untreated control. Format: in vivo. In short, it runs like this:
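Preventative test: compound spray first, then spore inoculation after 2 days on cv. Kanzler wheat leaf segments. Incubation in a climate cabinet at 20 °C and 75% rh under a 12 h light/12 h dark cycle. Activity rated as % control relative to untreated discs at 5–7 days post-application.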

In data set [2] the test system is Puccinia recondita f. sp. tritici. The experiment in a line: Puccinia recondita f. sp. tritici/Wheat/Leaf Disc Preventative (Brown Rust). Format: in vivo. The note with it: foliar, 200 ppm, wheat leaf disc preventative, compared to untreated control, read-out: control of Puccinia recondita f. sp. tritici.
Data set [3] has as its system Glomerella lagenarium (Colletotrichum lagenarium). The experiment in a line: Glomerella lagenarium (Colletotrichum lagenarium)/Liquid Culture (Anthracnose). Format: cell-based. The note with it: Colletotrichum orbiculare, liquid culture, compared to untreated control.
The subject of data set [4] is Mycosphaerella arachidis (Cercospora arachidicola). In words: Mycosphaerella arachidis (Cercospora arachidicola)/Liquid Culture (Early Leaf Spot). Format: cell-based. The note with it: liquid culture, compared to untreated control. In short, it runs like this: (§1)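 Liquid-culture format using potato dextrose broth inoculated directly with cryopreserved conidia, dosed with compound from a DMSO solution.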

Data set [5] relates to Puccinia recondita f. sp. tritici. The experiment in a line: Puccinia recondita f. sp. tritici/Wheat/Leaf Disc Curative (Brown Rust). It is filed as in vivo. The note with it: foliar, wheat leaf disc curative, compared to untreated control. The method in brief: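 Formulated compound, diluted in water, is applied to inoculated wheat cv. Kanzler leaf segments on agar one day post-inoculation (pre-incubation dark, 19° C, 75% rh). After 6-8 days at 19° C, 75% rh and 12 h/12 h light, activity is rated as percent disease control relative to untreated segments.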

The subject of data set [6] is Botryotinia fuckeliana (Botrytis cinerea). In words: Botryotinia fuckeliana (Botrytis cinerea)/Liquid Culture (Gray Mould). Format: cell-based. The note with it: liquid culture, compared to untreated control. As for the experimental part:
Conidia of the fungus from cryogenic storage are directly mixed into nutrient broth (Vogels broth). After placing a (DMSO) solution of test compound into a microtiter plate (96-well format), the nutrient broth containing the fungal spores is added.

The test system of a further data set is Phytophthora infestans. In words: whole plant or invertebrate. The note with it: in Solanum lycopersicum, foliar, read-out: control of Phytophthora infestans. Format: in vivo.
For data set [7], the system named is Thanatephorus cucumeris (Rhizoctonia solani). In words: Thanatephorus cucumeris (Rhizoctonia solani)/Liquid Culture (Foot Rot, Damping-Off). It is filed as cell-based. The note with it: liquid culture, compared to untreated control. As for the experimental part:
Mycelia fragments of a newly grown liquid culture of the fungus are directly mixed into nutrient broth (PDB potato dextrose broth). After placing a (DMSO) solution of the test compounds into a microtiter plate (96-well format), the nutrient broth containing the fungal material is added.

In the next data set the test system is Plasmopara viticola. The experiment in a line: whole plant or invertebrate. The note with it: foliar, read-out: control of Plasmopara viticola. Format: in vivo.
For data set [8], the system named is Monographella nivalis (Microdochium nivale). In words: Monographella nivalis (Microdochium nivale)/Liquid Culture (Foot Rot Cereals). It is filed as cell-based. The note with it: liquid culture, compared to untreated control. In short, it runs like this:
as §1

Data set [9] deals with Mycosphaerella graminicola (Septoria tritici). The experiment in a line: Mycosphaerella graminicola (Septoria tritici)/Liquid Culture (Septoria Blotch). The note with it: Zymoseptoria tritici; 20 ppm; liquid culture; compared to untreated control. It is filed as cell-based. The method in brief:
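Results given as % disease control: test compound in DMSO was placed in wells first, then potato dextrose broth carrying cryostored fungal conidia was added.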

For data set [10], the system named is Magnaporthe grisea (Pyricularia oryzae). In words: whole plant or invertebrate. Format: in vivo. The note with it: foliar, read-out: control of Magnaporthe grisea.
Data set [11] deals with Blumeria graminis f. sp. tritici (Erysiphe graminis f. sp. tritici). In words: Blumeria graminis f. sp. tritici/Wheat/Leaf Disc Preventative (Powdery Mildew on Wheat). It is filed as in vivo. The note with it: foliar, wheat leaf disc preventative, compared to untreated control. The method in brief: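 Preventative leaf-disc test: percent disease control versus untreated leaf segments read 6-8 days post-application. Compound spray applied to wheat cv. Kanzler segments on agar one day before shaking infected plants over them; incubation at 20° C and 60% rh, 24 h darkness then 12 h light/12 h dark cycles.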

For the next data set, the system named is Phakopsora pachyrhizi. In words: Phakopsora pachyrhizi/Soybean/Preventative (Soybean Rust). It is filed as in vivo. The note with it: foliar, 288 h, 200 ppm, soybean leaf disc preventative, compared to untreated control, read-out: control of Phakopsora pachyrhizi.

With `CO/C=C(\Oc1cc(-n2ccc(C(C)C)n2)c(OC)cc1C)C(=O)OC` [Compound E-31, methyl (Z)-2-[5-(3-isopropylpyrazol-1-yl)-4-methoxy-2-methyl-phenoxy]-3-methoxy-prop-2-enoate], the pest or weed control at 200 ppm (in [1]; in data set [2]; in [5]; in the data set on Phytophthora infestans; with Plasmopara viticola; in data set [10]) was no less than 80% throughout. Moreover, the inhibition of growth at 20 ppm in data set [3], in [4], in [6], in data set [7], in [8] and in data set [9] was no less than 80% each time.
For the compound `CO/C=C(\Oc1cc(-n2ccc(C(F)(F)F)n2)c(OC)cc1C)C(=O)OC` [Compound E-32, methyl (Z)-3-methoxy-2-[4-methoxy-2-methyl-5-[3-(trifluoromethyl)pyrazol-1-yl]phenoxy]prop-2-enoate], the melting point lay in the range of 130 to 133 °C. The pest or weed control at 200 ppm in data set [1] was no less than 80%. Also, the pest or weed control at 200 ppm in [2] is no less than 80%. Further, the inhibition of growth at 20 ppm in data set [3] was no less than 80%. Also, the inhibition of growth at 20 ppm in data set [4] was no less than 80%. In data set [5], this compound returned a pest or weed control at 200 ppm of no less than 80%. This compound had an inhibition of growth at 20 ppm in data set [6] of no less than 80%. The pest or weed control at 200 ppm in the data set on Phytophthora infestans was no less than 80%. The compound further registered an inhibition of growth at 20 ppm in data set [7] of no less than 80%. Besides, in the data set with Plasmopara viticola, the pest or weed control at 200 ppm is no less than 80%. This compound registered an inhibition of growth at 20 ppm in [8] of no less than 80%. In data set [9], the inhibition of growth at 20 ppm is no less than 80%. Further, the pest or weed control at 200 ppm in data set [10] was no less than 80%. Also, the pest or weed control at 200 ppm in data set [11] is no less than 80%.
Regarding `CO/C=C(\Oc1cc(C)cc(-n2ccc(C(C)C)n2)c1)C(=O)OC` [Compound E-35, methyl (Z)-2-[3-(3-isopropylpyrazol-1-yl)-5-methyl-phenoxy]-3-methoxy-prop-2-enoate], the pest or weed control at 200 ppm in data set [2] was no less than 80%; in data set [5], no less than 80%; in the data set on Phakopsora pachyrhizi, no less than 50%; in the data set with Phytophthora infestans, no less than 80%; in the data set with Plasmopara viticola, no less than 80%; in [10] it was no less than 80%. The compound also gave a pest or weed control at 200 ppm in data set [11] of no less than 80%. The inhibition of growth at 20 ppm in [3], in data set [4], in [6], in [7], in data set [8] and in [9] was no less than 80% each time.
For the compound `C/C=C(\C)c1ccn(-c2ccc(C)c(O/C(=C\OC)C(=O)OC)c2)n1` [Compound E-43, methyl (Z)-3-methoxy-2-[2-methyl-5-[3-[(E)-1-methylprop-1-enyl]pyrazol-1-yl]phenoxy]prop-2-enoate], the melting point was 115 to 118 °C. Also, the pest or weed control at 200 ppm in [2] is no less than 80%. In data set [3], this compound had an inhibition of growth at 20 ppm of no less than 80%. Moreover, in data set [4], the inhibition of growth at 20 ppm is no less than 80%. For the same compound, the pest or weed control at 200 ppm in [5] was no less than 80%. This compound also had an inhibition of growth at 20 ppm in data set [6] of no less than 80%. Besides, in the data set with Phytophthora infestans, the pest or weed control at 200 ppm was no less than 80%. Besides, in data set [7], the inhibition of growth at 20 ppm was no less than 80%. Further, the pest or weed control at 200 ppm with Plasmopara viticola was no less than 80%. This compound also showed an inhibition of growth at 20 ppm in data set [8] of no less than 80%. This compound yielded an inhibition of growth at 20 ppm in data set [9] of no less than 80%. The pest or weed control at 200 ppm in [10] is no less than 80%.
`CO/C=C(\Oc1cc(-n2cc(F)c(C(C)C)n2)ccc1C)C(=O)OC` [Compound E-46, methyl (Z)-2-[5-(4-fluoro-3-isopropyl-pyrazol-1-yl)-2-methyl-phenoxy]-3-methoxy-prop-2-enoate] returned a melting point of 111 to 113 °C. Also, the pest or weed control at 200 ppm in data set [2] was no less than 80%. In data set [3], the inhibition of growth at 20 ppm is no less than 80%. In addition, the inhibition of growth at 20 ppm in data set [4] is no less than 80%. In data set [5], this compound showed a pest or weed control at 200 ppm of no less than 80%. In [6], this compound returned an inhibition of growth at 20 ppm of no less than 80%. The pest or weed control at 200 ppm with Phytophthora infestans was no less than 80%. Further, the inhibition of growth at 20 ppm in [7] was no less than 80%. Further, in the data set on Plasmopara viticola, the pest or weed control at 200 ppm is no less than 80%. Moreover, the inhibition of growth at 20 ppm in [8] is no less than 80%. The inhibition of growth at 20 ppm in data set [9] was no less than 80%. In data set [10], the pest or weed control at 200 ppm is no less than 80%.
With `C#Cc1cnn(-c2ccc(C)c(O/C(=C\OC)C(=O)OC)c2)c1` [Compound E-48, methyl (Z)-2-[5-(4-ethynylpyrazol-1-yl)-2-methyl-phenoxy]-3-methoxy-prop-2-enoate], the pest or weed control at 200 ppm (in data set [1]; in [2]; in data set [5]; in the data set on Phytophthora infestans; in the data set with Plasmopara viticola; in data set [11]) was no less than 80% each time. The inhibition of growth at 20 ppm in data set [3], in data set [4], in data set [6], in data set [7], in data set [8] and in data set [9] was no less than 80% in each case.
Turning to `CO/C=C(\Oc1cc(-n2cc(C3CC3)cn2)ccc1C)C(=O)OC` [Compound E-50, methyl (Z)-2-[5-(4-cyclopropylpyrazol-1-yl)-2-methyl-phenoxy]-3-methoxy-prop-2-enoate], the pest or weed control at 200 ppm in data set [1] is no less than 80%; in [2], no less than 80%; with Phakopsora pachyrhizi it was no less than 50%; in the data set with Phytophthora infestans, no less than 80%; in the data set on Plasmopara viticola, no less than 80%; in data set [10] it was no less than 80%. Besides, in [11], the pest or weed control at 200 ppm is no less than 80%. The inhibition of growth at 20 ppm in [3], in data set [4], in [6], in data set [7], in [8] and in [9] was no less than 80% each time.
As to `CO/C=C(\Oc1cc(-n2cc(C)cn2)ccc1C)C(=O)OC` [Compound E-59, methyl (Z)-3-methoxy-2-[2-methyl-5-(4-methylpyrazol-1-yl)phenoxy]prop-2-enoate], the pest or weed control at 200 ppm in data set [1] is no less than 80%; in data set [2], no less than 80%; in the data set with Phakopsora pachyrhizi it was no less than 50%; in the data set with Phytophthora infestans, no less than 80%; with Plasmopara viticola, no less than 80%; in data set [10] it was no less than 80%. In data set [11], this compound registered a pest or weed control at 200 ppm of no less than 80%. Besides, the inhibition of growth at 20 ppm in data set [3], in data set [4], in data set [6], in data set [7], in data set [8] and in [9] was no less than 80% each time.
In the case of `C=C(C)c1ccn(-c2ccc(C)c(O/C(=C\OC)C(=O)OC)c2)n1` [Compound E-65, methyl (Z)-2-[5-(3-isopropenylpyrazol-1-yl)-2-methyl-phenoxy]-3-methoxy-prop-2-enoate], the melting point is 80 to 84 °C. The compound further returned a pest or weed control at 200 ppm in data set [1] of no less than 80%. Moreover, in [2], the pest or weed control at 200 ppm was no less than 80%. This compound returned an inhibition of growth at 20 ppm in data set [3] of no less than 80%. Further, the inhibition of growth at 20 ppm in [4] is no less than 80%. The pest or weed control at 200 ppm in [5] is no less than 80%. In addition, the inhibition of growth at 20 ppm in data set [6] was no less than 80%. This compound also gave an inhibition of growth at 20 ppm in [7] of no less than 80%. Also, the pest or weed control at 200 ppm with Plasmopara viticola was no less than 80%. This compound also had an inhibition of growth at 20 ppm in data set [8] of no less than 80%. This compound showed an inhibition of growth at 20 ppm in [9] of no less than 80%. Moreover, the pest or weed control at 200 ppm in data set [10] was no less than 80%.

These data come from patent US12043600B2, “Microbiocidal compounds” (SYNGENTA CROP PROTECTION AG, priority 2018, dated 2024).
